Assays:
[1] = High-temperature test (60° C.), stability study; assay type: physicochemical; settings: open-stored; for Appearance Day 5: Day 5, cell wraps; for Appearance Day 5 / Appearance Day 10: first line given; for Appearance Day 10: Day 10, cell wraps;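 on all read-outs here: samples kept uncovered in dishes at 60 °C for up to 10 days and examined on Day 5 and Day 10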
Experimental: The test samples were open-stored in culture dishes at 60° C. for 10 days, and taken and detected on Day 5 and Day 10. • The characteristics, especially colour change were observed. • Melting points were measured by automatic melting point apparatus. • By self-reflection, TLC is used to observe whether the spot numbers were increased after 5 days and 10 days.

[2] = test system: ethanol-induced gastric ulcer; assay: Anhydrous ethanol-induced gastric ulcer in mice; assay type: in vivo, Kunming mice; set-up: key to Gastri ulcer score (X ± SD) / Ulcer score (X ± SD) / Gastric ulcer score (X ± SD): summed pathology score: congestion 1, hemorrhage/erosion 1, linear erosion 3
Experimental: Kunming mice, half male and half female, weighing 18-22 g, provided by the West China Animal Center
(1) Azulene sodium sulphonate was added with 0.5% CMC to prepare a suspension with concentration of 0.15 mg/ml.
(2) 20 mg of Omeprazole was added with 0.5% CMC to prepare a suspension with concentration of 0.67 mg/ml.
Kunming mice were randomly grouped according the body weight (one model control group or negative control group, one Omeprazole control group or positive control group, one Azulene sodium sulphonate control group, twelve test drug groups), eight mice for each group, half male and half female.
Administration: Model control group was administrated intragastrically with 0.5% CMC solution at a dose of 0.4 ml/20 g; Omeprazole control group was administrated intragastrically with Omeprazole at a dose of 0.4 ml/20 g, Azulene sodium sulphonate control group and each test drug groups were administrated intragastrically with their respective drug at a dose of 0.4 ml/20 g. The mice in each group were administrated once a day for successive five days. 0.5 hour after final administration, the mice in each group were administrated intragastrically with 0.5 ml of anhydrous ethanol, one hour later the mice were executed and dissected, and their stomaches were taken, washed and scored according to the pathological degree. For local congestion and rubefaction, score was 1; for petechial hemorrhage or erosion, score was respectively 1, for each linear erosion, score was 3. Statistical analysis was performed. Ulcer scores were calculated, significant differences between the groups were compared and the inhibition rates of ulcer were calculated [Inhibition rate of ulcer=(ulcer score of model group−ulcer score of drug administration group)/ulcer score of model group].

[3] = Stability studies (light, humidity, heat), overall comparison; settings: summary of high-temperature, high humidity and intense light tests
[4] = High humidity test (25° C., relative humidity 90% ± 5%), stability study; assay type: physicochemical; settings: RH 90% ± 5%; for Appearance Day 0: Day 0, cell wraps; for Appearance Day 0 / Appearance Day 5 / Appearance Day 10: first line given; for Appearance Day 5: Day 5, cell wraps; for Appearance Day 10: Day 10, cell wraps;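 on all read-outs here: samples kept uncovered in sealed humidity desiccators, appearance judged mainly by colour change, melting point on an automatic apparatus, TLC checked for extra spots versus start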
[5] = Intense light irradiation test (4500LX ± 500LX), stability study; assay type: physicochemical; settings: for Appearance Day 0: Day 0, cell wraps; for Appearance Day 0 / Appearance Day 5 / Appearance Day 10: first line given; for Appearance Day 5: Day 5, cell wraps; for Appearance Day 10: Day 10, cell wraps
Experimental: The test samples were open-stored in “adjustable light boxes” under the conditions of illumination of 4500LX±500LX for 10 days, and taken and detected on Day 5 and Day 10 with regards to dry items. • The characteristics, especially colour change was observed. • Melting points were measured by an automatic melting point apparatus. • By self-reflection, TLC is used to observe whether the spot numbers were increased after 5 days and 10 days.

| Structure (SMILES) | Melting point Day 0 [1] | Spot numbers on TLC Day 0 [1] | Melting point Day 5 [1] | Spot numbers on TLC Day 5 [1] | Appearance Day 5 [1] | Melting point Day 10 [1] | Spot numbers on TLC Day 10 [1] | Appearance Day 10 [1] | melting point [°C] | Melting point Day 0 [4] | Spot numbers on TLC Day 0 [4] | hygroscopic rate (%) Day 0 [4] [%] | Appearance Day 0 [4] | Melting point Day 5 [4] | Spot numbers on TLC Day 5 [4] | hygroscopic rate (%) Day 5 [4] [%] | Appearance Day 5 [4] | Melting point Day 10 [4] | Spot numbers on TLC Day 10 [4] | light, humidity and heat stability in words [3] | other results |
| --- | --- | --- | --- | --- | --- | --- | --- | --- | --- | --- | --- | --- | --- | --- | --- | --- | --- | --- | --- | --- | --- |
| CCCNS(=O)(=O)c1cc(C)c2cc(C(C)C)ccc(C)c1-2 [4f, N-propyl-3,8-dimethyl-5-isopropyl-1-azulene sulfonamide] | 59.5-62.5 °C | 1 | 60.0-62.0 °C | 1 | purple | 60.0-62.0 °C | 1 | purple | 60 to 62 | 59.5-62.5 °C | 1 | 1.13 | purple | 59.5-63.0 °C | 1 | 1.28 | purple | 59.5-63.0 °C | 1 | better light, humidity and heat stability than azulene sulfonate sodium | Appearance Day 10 [4]: purple; Melting point Day 0 [5]: 59.5-62.5 °C; Spot numbers on TLC Day 0 [5]: 1; Appearance Day 0 [5]: purple; Melting point Day 5 [5]: 58.5-62.0 °C; Spot numbers on TLC Day 5 [5]: 1; Appearance Day 5 [5]: purple; Melting point Day 10 [5]: 57.5-61.5 °C; Spot numbers on TLC Day 10 [5]: 2; Appearance Day 10 [5]: purple |
| Cc1ccc(NS(=O)(=O)c2cc(C)c3cc(C(C)C)ccc(C)c2-3)cc1 [4g, N-(4-methylphenyl)-3,8-dimethyl-5-isopropyl-1-azulene sulfonamide] | 146.0-148.5 °C | 1 | 146.0-148.0 °C | 1 | purple | 145.5-147.5 °C | 1 | purple | 146 to 148 | 146.0-148.5 °C | 1 | 1.56 | purple | 145.5-148.5 °C | 1 | 2.01 | purple | 145.5-148.5 °C | 1 | better light, humidity and heat stability than azulene sulfonate sodium | Appearance Day 10 [4]: purple; Melting point Day 0 [5]: 146.0-148.5 °C; Spot numbers on TLC Day 0 [5]: 1; Appearance Day 0 [5]: purple; Melting point Day 5 [5]: 145.0-147.5 °C; Spot numbers on TLC Day 5 [5]: 1; Appearance Day 5 [5]: purple; Melting point Day 10 [5]: 143.5-147.5 °C; Spot numbers on TLC Day 10 [5]: 2; Appearance Day 10 [5]: purple |
| CCNS(=O)(=O)c1cc(C)c2cc(C(C)C)ccc(C)c1-2 [4h, N-ethyl-3,8-dimethyl-5-isopropyl-1-azulene sulfonamide] | 123.5-125.5 °C | 1 | 123.5-125.5 °C | 1 | blue | 124.5-125.0 °C | 1 | blue | 96 to 98 | 123.5-125.5 °C | 1 | 1.14 | blue | 123.5-125.5 °C | 1 | 2.11 | blue | 123.5-125.5 °C | 1 | better light, humidity and heat stability than azulene sulfonate sodium | Appearance Day 10 [4]: blue; Melting point Day 0 [5]: 123.5-125.5 °C; Spot numbers on TLC Day 0 [5]: 1; Appearance Day 0 [5]: blue; Melting point Day 5 [5]: 122.0-125.5 °C; Spot numbers on TLC Day 5 [5]: 1; Appearance Day 5 [5]: blue; Melting point Day 10 [5]: 121.0-126.0 °C; Spot numbers on TLC Day 10 [5]: 2; Appearance Day 10 [5]: blue |

The next lines start with results.

| Melting point Day 0 [1] | Spot numbers on TLC Day 0 [1] | Melting point Day 5 [1] | Spot numbers on TLC Day 5 [1] | Appearance Day 5 [1] | Melting point Day 10 [1] | Spot numbers on TLC Day 10 [1] | Appearance Day 10 [1] | melting point [°C] | Melting point Day 0 [4] | Spot numbers on TLC Day 0 [4] | hygroscopic rate (%) Day 0 [4] [%] | Appearance Day 0 [4] | Melting point Day 5 [4] | Spot numbers on TLC Day 5 [4] | hygroscopic rate (%) Day 5 [4] [%] | Appearance Day 5 [4] | Melting point Day 10 [4] | Spot numbers on TLC Day 10 [4] | Structure (SMILES) | light, humidity and heat stability in words [3] | other results |
| --- | --- | --- | --- | --- | --- | --- | --- | --- | --- | --- | --- | --- | --- | --- | --- | --- | --- | --- | --- | --- | --- |
| 172.5-174.0 °C | 1 | 172.0-173.5 °C | 1 | purple | 172.5-174.0 °C | 1 | purple | 172 to 174 | 172.5-174.0 °C | 1 | 1.01 | purple | 172.0-174.5 °C | 1 | 1.46 | purple | 172.0-174.5 °C | 1 | Cc1cc(S(=O)(=O)Nc2cccc(Br)c2)c2c(C)ccc(C(C)C)cc1-2 [4a, N-(3-bromophenyl)-3,8-dimethyl-5-isopropyl-1-azulene sulfonamide] | better light, humidity and heat stability than azulene sulfonate sodium | Inhibition rate (%) ([2]; Table 4, inhibition rate of ulcer vs model group): 51.31%; Gastri ulcer score (X ± SD) ([2]; Table 4, mice, intragastric once a day for five days, dose equimolar to azulene sulfonate sodium 3.0 mg/kg (Omeprazole 13.4 mg/kg), model group 13.00 ± 1.77): 6.33 ± 4.50; anti-gastric ulcer effect in words ([2]; ethanol-induced gastric ulcer in mice, compared to the model group): significantly relieve the pathological degree; Appearance Day 10 [4]: purple; Melting point Day 0 [5]: 172.5-174.0 °C; Spot numbers on TLC Day 0 [5]: 1; Appearance Day 0 [5]: purple; Melting point Day 5 [5]: 172.0-175.0 °C; Spot numbers on TLC Day 5 [5]: 1; Appearance Day 5 [5]: purple; Melting point Day 10 [5]: 173.0-174.0 °C; Spot numbers on TLC Day 10 [5]: 1; Appearance Day 10 [5]: purple |
| 124.0-125.5 °C | 1 | 124.0-125.5 °C | 1 | dark blue | 124.0-125.5 °C | 1 | blue | 124 to 126 | 124.0-126.0 °C | 1 | 1.24 | dark | 124.0-126.5 °C | 1 | 2.08 | dark | 124.5-126.5 °C | 1 | Cc1cc(S(=O)(=O)NCc2ccccc2)c2c(C)ccc(C(C)C)cc1-2 [4j, N-benzyl-3,8-dimethyl-5-isopropyl-1-azulene sulfonamide] | better light, humidity and heat stability than azulene sulfonate sodium | Appearance Day 10 [4]: blue; Melting point Day 0 [5]: 124.0-125.5 °C; Spot numbers on TLC Day 0 [5]: 1; Appearance Day 0 [5]: dark blue; Melting point Day 5 [5]: 123.5-125.5 °C; Spot numbers on TLC Day 5 [5]: 1; Appearance Day 5 [5]: dark; Spot numbers on TLC Day 10 [5]: 2; Appearance Day 10 [5]: blue |
| 134.5-135.0 °C | 1 | 134.0-135.5 °C | 1 | purple | 134.0-135.5 °C | 1 | purple | 134 to 135 | 134.5-135.0 °C | 1 | 1.17 | purple | 134.5-135.5 °C | 1 | 1.87 | purple | 134.5-135.5 °C | 1 | Cc1cc(S(=O)(=O)Nc2ccc(Cl)cc2)c2c(C)ccc(C(C)C)cc1-2 [4k, N-(4-chlorophenyl)-3,8-dimethyl-5-isopropyl-1-azulene sulfonamide] | better light, humidity and heat stability than azulene sulfonate sodium | Appearance Day 10 [4]: purple; Melting point Day 0 [5]: 134.5-135.0 °C; Spot numbers on TLC Day 0 [5]: 1; Appearance Day 0 [5]: purple; Melting point Day 5 [5]: 134.0-135.5 °C; Spot numbers on TLC Day 5 [5]: 1; Appearance Day 5 [5]: purple; Melting point Day 10 [5]: 134.0-135.5 °C; Spot numbers on TLC Day 10 [5]: 1; Appearance Day 10 [5]: purple |

Source: patent US9376382B2, “N-substituted isopropyldimethyl azulene sulfonamide derivatives, and preparation method and use thereof” (Sichuan Guokang Pharmaceutical Co., Ltd., priority 2011, dated 2016)
